{
  "source": "paper PMC8765310",
  "about": "“Metabolism, Excretion, and Mass Balance of [^14C]-Rezafungin in Animals and Humans” (Antimicrobial Agents and Chemotherapy, 2022)",
  "key": {"[1]": {"assay": "Human excretion/mass balance of [14C]-rezafungin", "assay_type": "in vivo", "protocol": "(i) Study design. This was an open-label, phase I, single-dose mass balance study. The study was conducted at Labcorp (formerly, Covance, Inc.; Madison, WI) in accordance with good clinical practice, including ICH guidelines and applicable regulatory requirements, and in general conformity with the Declaration of Helsinki. No animal work was conducted by Labcorp. All pertinent study documents were reviewed by the Institutional Review Board (IRB) prior to study initiation. Following IRB approval and collection of written informed consent, all the subjects underwent an initial screening assessment within 28 days of the first dose. Safety was assessed by vital signs, physical examinations, AE assessments, laboratory tests (chemistry, hematology, and urinalysis), and a 12-lead electrocardiogram.\nSubjects were initially confined in the clinical research unit (CRU) for 17 days postdose and returned for two follow-up visits (days 29 and 60). Recovery of radioactivity was estimated by linear interpolation during the period of time subjects were away from the CRU. Blood samples, urine, and feces were collected at specified times over 60 days.\n(ii) Sample analysis. Whole blood, plasma, urine, and fecal homogenate samples were mixed with scintillation fluid and analyzed by liquid scintillation counting. For non-radiolabeled rezafungin concentration determination, a bioanalytical method was validated for measuring rezafungin in human plasma that is similar to one previously reported for animal plasma ([16]). Samples were analyzed using a 100 μl aliquot volume and a protein-precipitation extraction procedure followed by liquid chromatography/tandem mass spectrometry (LC-MS/MS) analysis. Chromatography was carried out on a Waters Atlantis HPLC column (dC18, 2.1 × 50 mm, 5 μm) operating under reverse-phase gradient conditions (0.1% formic acid in water/0.1% formic acid in acetonitrile/tetrahydrofuran ramped from 55%/45%/0% to 5%/0%/95%). Rezafungin calibration range was 10.0 ng/ml to 10,000 ng/ml using isotopically-labeled d9-rezafungin as an internal standard. An AB-Sciex API 4000 mass spectrometer was operated in the multiple reaction monitoring mode (parent-to-product ion transition) under optimized conditions for detection of rezafungin (m/z 604.5 to 343.3 Da) and d9-rezafungin (m/z 609.5 to 343.3 Da) positive ions formed by electrospray ionization. Excellent intra- and inter-assay accuracy and precision, as measured by quality control (QC) samples, was obtained during validation. Across the range of QC samples tested (lower limit of quantitation, LLOQ, through the High QC range), the intra-assay accuracy (% bias from nominal) ranged from −1.4% to 7.0% with the intra-assay precision (% coefficient of variation) ranging from 1.6% to 7.4%. Inter-assay accuracy ranged from 0.3% to 4.3% with the inter-assay precision ranging from 2.7% to 5%."}, "[2]": {"assay": "Rat metabolite profiling (LC-MS with radioactivity detection)", "assay_type": "in vivo, Sprague-Dawley rats", "details": "pooled samples, IV 15 mg/kg", "protocol": "(i) Rat study design. The study used 12 male Sprague-Dawley rats, each administered a bolus IV injection into the tail vein over approximately 3–4 min of 15 mg/kg of rezafungin (with a target radioactivity of 200 μCi/kg of [^14C]-rezafungin). Three of the rats were bile duct cannulated. Whole blood/plasma, urine, feces/bile, and cage washings were collected at periodic intervals from noncannulated rats until euthanization at 336 h postdose and from bile duct cannulated rats until euthanization at 120 h postdose as that was the duration that the patency of bile duct cannulae could be maintained. Carcasses were collected at the time of euthanization. All samples were analyzed for drug-derived radioactivity by liquid scintillation counting.\n(§1) (iv) Metabolite profiling. The metabolite identification and urine profiling were achieved using pooled samples by equal percent weight of samples (urine, bile, feces) or by equal volume (50 μl) aliquots of each plasma sample across all time points/intervals. The urine, plasma, bile, and fecal samples were analyzed using liquid chromatography tandem mass spectrometry (LC-MS) coupled with a radioactivity flow-through detector for metabolite profiling and identification. Tandem MS experiments were performed, and the structures of the metabolites were proposed based on their MS/MS spectra. The proposed structures were confirmed by comparison of the retention times and product ion spectra with the authentic reference standards when possible."}, "[3]": {"assay": "Monkey metabolite profiling (LC-MS with radioactivity detection)", "assay_type": "in vivo, cynomolgus monkeys", "details": "pooled samples, IV 10 mg/kg", "protocol": "(ii) Monkey study design. The study used 3 male cynomolgus monkeys, each administered a single 10 mg/kg IV dose of [^14C]-rezafungin (with a target radioactivity of 100 μCi/kg of [^14C]-rezafungin) by infusion into a saphenous vein over 20 min. Whole blood and plasma samples were collected at each of the following time points: predose, 0.5, 2, 4, 8, 24, 48, 96 120, 144, 168, 240, 480, 720, and 1440 h postdose. Urine, feces, and cage washings were collected at predose (urine/feces only) and daily 24-h collections for 30 days.\nas §1"}, "[4]": {"assay": "Human metabolite profiling (HPLC with radiochemical and HRMS detection)", "assay_type": "in vivo", "details": "400 mg IV", "protocol": "(iv) Metabolite profiling. Plasma samples were pooled across subjects through 672 h postdose to produce inter-subject time point pools. Urine and fecal homogenate samples were pooled by subject across various time points up through 408 and 672 h postdose, respectively. Selected samples of plasma, urine, and feces were profiled for rezafungin and metabolites by HPLC with radiochemical and high-resolution mass spectrometry detection; metabolites were identified by HPLC with known standards and/or by HPLC-MS/MS structure elucidation. Pharmacokinetics were calculated by non-compartmental analysis using Phoenix WinNonlin software (version 6.3/8.1; Pharsight, Mountain View, CA)."}, "[5]": {"details": "cited from earlier work", "description": "All three of the previously approved echinocandins (caspofungin, micafungin, and anidulafungin) are believed to undergo spontaneous chemical (non-enzymatic) degradation to a ring-opened peptide as their primary clearance mechanism ([18]). […] While protein binding is generally considered a factor in evaluation of half-life, rezafungin and the ..."}, "[6]": {"details": "of the estimated total through day 60"}},
  "note": "*1 amine or outer side, *2 acyl side, *3 side chain or, on linkers, in order; H or OH if unused. Where a SMILES comes first, the peptide text is derived from it. Bridges are numbered along the chain shown (N, C = ends). [ ]: non-standard residue; d: D form. The star is where a group is joined. Orn(4R-OH,5R-OCH2CH2NMe3+) = C[N+](C)(C)CCO[C@@H](N[*:3])[C@H](O)C[C@H](N[*:1])C(=O)[*:2]; pTerphenylCO(4''-OnC5H11) = CCCCCOc1ccc(-c2ccc(-c3ccc(C(=O)*)cc3)cc2)cc1; hTyr(3S-OH,4S-OH) = N[C@H](C(=O)O)[C@H](O)[C@@H](O)c1ccc(O)cc1; Pro(3S-OH,4S-Me) = C[C@H]1CN[C@H](C(=O)O)[C@H]1O; Hyp = O=C(O)[C@@H]1C[C@@H](O)CN1",
  "data": [
    {"smiles": "CCCCCOc1ccc(-c2ccc(-c3ccc(C(=O)N[C@H]4C[C@@H](O)[C@@H](OCC[N+](C)(C)C)NC(=O)[C@@H]5[C@@H](O)[C@@H](C)CN5C(=O)[C@H]([C@@H](C)O)NC(=O)[C@H]([C@H](O)[C@@H](O)c5ccc(O)cc5)NC(=O)[C@@H]5C[C@@H](O)CN5C(=O)[C@H]([C@@H](C)O)NC4=O)cc3)cc2)cc1", "note": "[rezafungin] ({pTerphenylCO(4''-OnC5H11)}-[Orn(4R-OH,5R-OCH2CH2NMe3+)]T[Hyp][hTyr(3S-OH,4S-OH)]T[Pro(3S-OH,4S-Me)]; lactam 1-C)", "values": [
      {"measurement": "Share of the total recovered radioactivity found in feces", "setting": "[1]; [6]", "result": "Approximately 73%"},
      {"measurement": "Share of the total recovered radioactivity found in urine", "setting": "[1]; [6]", "result": 27, "unit": "%"},
      {"measurement": "Cumulative recovery of radioactivity from excreta", "setting": "[1]; single 400-mg IV infusion, through the first 17 days (in-clinic), LSC, mean", "result": 52, "unit": "%"},
      {"measurement": "Estimated mean overall recovery of the dose", "setting": "[1]; through day 60, linear interpolation with day 29 and day 60 visits", "result": 88.3, "unit": "%"},
      {"measurement": "Cumulative recovery of radioactivity in feces", "setting": "[1]; through the first 17 days", "result": 38, "unit": "%"},
      {"measurement": "Cumulative recovery of radioactivity in urine", "setting": "[1]; through the first 17 days", "result": 14, "unit": "%"},
      {"measurement": "Radioactive component in feces and bile", "setting": "[2]; rat feces and bile", "result": "predominant radioactive component"},
      {"measurement": "Share of total plasma radioactivity exposure", "setting": "[2]; rat plasma, LC-MS with radio-detection", "result": 56, "unit": "%"},
      {"measurement": "Share of total recovered radioactivity in feces", "setting": "[3]; monkey feces", "result": 35, "unit": "%"},
      {"measurement": "Share of total plasma radioactivity exposure", "setting": "[3]; monkey plasma, LC-MS with radio-detection", "result": 74, "unit": "%"},
      {"measurement": "Share of total recovered radioactivity in feces", "setting": "[4]; human feces pooled by subject through 672 h postdose", "result": 90, "unit": "%"},
      {"measurement": "Share of total plasma radioactivity exposure", "setting": "[4]; human plasma pooled across subjects through 672 h postdose, HPLC radio/HRMS", "result": 69, "unit": "%"},
      {"measurement": "Share of total recovered radioactivity in urine", "setting": "[4]; human urine pooled by subject through 408 h postdose", "result": "negligible"},
      {"measurement": "Protein binding", "setting": "[5]", "result": 97.4, "unit": "%"}
    ]}
  ]
}
